Data: patent US20260217767A1, “NOVEL A4B7 THIOETHER PEPTIDE DIMER ANTAGONISTS” (Protagonist Therapeutics, Inc., priority 2014, published 2026)
Like-named read-outs stand apart in the source and are kept apart here. *1 amine or outer side, *2 acyl side, *3 side chain or, on linkers, in order; H or OH if unused. Where a SMILES comes first, the peptide text is derived from it. Bridges are numbered along the chain shown (N, C = ends). [ ]: non-standard residue; d: D form. Phe(2-Me) = Cc1ccccc1C[C@H](N)C(=O)O; NMeR = CN[C@@H](CCCNC(=N)N)C(=O)O; β3hE = N[C@@H](CCC(=O)O)CC(=O)O; X1 = O=C(c1ccccc1C[*:2])[*:1]; Pen = CC(C)(S)[C@H](N)C(=O)O

What was measured:
RPMI 8866 cells = target: T1, RPMI 8866 cells (Homo sapiens, UniProt P13612+P26010); assay: α4β7-MAdCAM Cell Adhesion Assay; format: cell-based; details: read-out: Cell-Adhesion A4B7
T1 sequence (P13612 34-1032): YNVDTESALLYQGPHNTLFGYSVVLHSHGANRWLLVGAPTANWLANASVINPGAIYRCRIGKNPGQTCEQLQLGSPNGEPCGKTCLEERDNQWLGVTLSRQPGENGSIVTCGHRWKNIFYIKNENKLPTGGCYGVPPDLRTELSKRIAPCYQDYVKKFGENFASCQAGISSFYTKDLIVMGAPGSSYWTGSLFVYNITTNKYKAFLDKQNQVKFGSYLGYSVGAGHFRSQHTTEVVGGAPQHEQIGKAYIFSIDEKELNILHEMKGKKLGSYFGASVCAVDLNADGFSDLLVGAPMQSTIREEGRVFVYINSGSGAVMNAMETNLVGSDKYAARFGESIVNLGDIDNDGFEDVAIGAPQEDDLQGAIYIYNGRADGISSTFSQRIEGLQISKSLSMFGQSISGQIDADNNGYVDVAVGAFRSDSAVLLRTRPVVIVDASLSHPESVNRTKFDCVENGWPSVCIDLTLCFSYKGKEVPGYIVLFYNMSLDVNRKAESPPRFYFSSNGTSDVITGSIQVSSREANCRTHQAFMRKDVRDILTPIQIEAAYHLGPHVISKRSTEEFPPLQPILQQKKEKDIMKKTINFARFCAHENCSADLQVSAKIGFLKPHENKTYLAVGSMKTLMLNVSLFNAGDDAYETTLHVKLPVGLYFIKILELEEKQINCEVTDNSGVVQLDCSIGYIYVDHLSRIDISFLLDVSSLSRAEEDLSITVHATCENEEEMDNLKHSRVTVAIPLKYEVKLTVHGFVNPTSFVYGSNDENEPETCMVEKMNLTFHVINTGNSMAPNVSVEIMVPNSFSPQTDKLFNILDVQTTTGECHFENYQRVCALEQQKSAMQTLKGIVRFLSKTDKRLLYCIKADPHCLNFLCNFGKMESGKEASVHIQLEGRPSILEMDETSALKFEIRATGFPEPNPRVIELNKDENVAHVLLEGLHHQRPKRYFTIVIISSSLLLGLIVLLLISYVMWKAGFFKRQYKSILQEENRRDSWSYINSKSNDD
T1 sequence (P26010 20-798): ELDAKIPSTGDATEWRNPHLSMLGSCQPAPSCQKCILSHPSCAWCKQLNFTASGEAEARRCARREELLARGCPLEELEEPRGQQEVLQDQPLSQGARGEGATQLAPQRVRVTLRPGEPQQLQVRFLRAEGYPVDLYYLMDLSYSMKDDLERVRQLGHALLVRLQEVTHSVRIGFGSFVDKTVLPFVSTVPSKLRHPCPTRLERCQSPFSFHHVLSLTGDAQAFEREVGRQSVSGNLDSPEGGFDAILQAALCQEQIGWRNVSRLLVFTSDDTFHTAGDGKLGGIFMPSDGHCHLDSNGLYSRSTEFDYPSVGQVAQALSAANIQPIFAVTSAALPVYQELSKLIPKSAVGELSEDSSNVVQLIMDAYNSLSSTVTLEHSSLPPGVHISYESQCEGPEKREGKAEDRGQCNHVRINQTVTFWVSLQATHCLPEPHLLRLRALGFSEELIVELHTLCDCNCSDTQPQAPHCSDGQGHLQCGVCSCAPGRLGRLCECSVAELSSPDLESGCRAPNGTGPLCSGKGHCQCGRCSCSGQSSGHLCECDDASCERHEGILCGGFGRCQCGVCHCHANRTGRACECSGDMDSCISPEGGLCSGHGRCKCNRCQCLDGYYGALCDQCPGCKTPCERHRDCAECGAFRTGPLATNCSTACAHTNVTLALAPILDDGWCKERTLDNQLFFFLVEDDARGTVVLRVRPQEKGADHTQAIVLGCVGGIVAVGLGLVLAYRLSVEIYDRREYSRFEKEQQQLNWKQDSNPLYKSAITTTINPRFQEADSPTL
Outline: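 RPMI 8866 cells (200,000/well) in DMEM with 1 mM MnCl2 and 0.1% BSA were allowed to adhere 30-45 min at 37° C to plates coated with rh MAdCAM-1/Fc (200 ng/well) in presence of serially diluted peptide. After washing, bound cells quantified by MTT, absorbance 570 nm, cell-free background subtracted.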

[1] = Simulated Intestinal Fluid (SIF) Stability Assay; format: in vitro ADME; details: 37° C.; for half-life: porcine pancreatin
Procedure: Simulated Intestinal Fluid (SIF) Stability Assay
Studies were carried out in simulated intestinal fluid (SIF) to evaluate intestinal stability of the peptide molecules of the instant invention. To prepare the SIF reagent, blank FASSIF was prepared by dissolving 0.348 g NaOH, 3.954 g sodium phosphate monobasic monohydrate and 6.186 g NaCl in a final volume of 1 liter water (final pH=6.5). To this solution, 24 g porcine pancreatin (Sigma catalog P7545) was added and stirred for 30 minutes (final pancreatin concentration is 2.4%). The solution was filtered through a cheese cloth and a No. 1 Whatman filter, and 10 ml aliquots were stored at −70° C. To run the reaction, a 10 ml aliquot was thawed at 37° C., and 125 μl aliquots were removed and mixed with an equal volume of blank FASSIF. The peptide stock solution (10 mM in 100% DMSO) was diluted 75-fold in blank FASSIF. A 50 μl aliquot of the diluted peptide was combined with 125 μl pancreatin (2.4%) and 125 μl blank FASSIF to yield final concentrations of 1% pancreatin and 22 μM peptide. The reactions were incubated at 37° C., and at various time points 50 μl aliquots were removed and added to 200 μl of quench solution containing 50% acetonitrile, 50% methanol, 5% formic acid, and 1 μg/ml internal standard. The quenched samples were centrifuged at 10,000 rpm for 10 minutes, and the supernatants were analyzed by LCMS/MS. The percent remaining at each time point was calculated based on the peak area response ratio of test to compound to internal standard. Half-lives were calculated by fitting to a first-order exponential decay equation using GraphPad. A small sampling of the results of these studies is provided and discussed herein and in the accompanying figures.

[2] = thioether peptide dimers, Table 7
[3] = simulated gi fluid, monomers, Table 6
[4] = simulated gi fluid, dimers, Table 7

SMILES	half-life [1, 3] [h]	half-life [1, 4] [h]	also measured
Cc1ccccc1C[C@H](NC(=O)[C@H]1NC(=O)[C@H](CC(C)C)NC(=O)[C@H]([C@@H](C)O)NC(=O)[C@H](CC(=O)O)NC(=O)[C@H](CO)NC(=O)[C@H](CCCNC(=N)N)N(C)C(=O)c2ccccc2CSC1(C)C)C(=O)N[C@@H](CCC(=O)O)CC(N)=O [compound 126] ([NMeR]SDTL[Pen][Phe(2-Me)][β3hE]-NH2; linker N-6 via X1)			IC50 (RPMI 8866 cells; thioether monomer peptides, Table 6): 25 to 100 nM; half-life ([1]; pig, monomers, Table 6): > 3 h
COC(=O)CC[C@H](NC(=O)[C@@H]1Cc2ccccc2CN1C(=O)[C@@H]1CSCc2ccccc2C(=O)N(C)[C@@H](CCCNC(=N)N)C(=O)N[C@@H](CO)C(=O)N[C@@H](CC(=O)O)C(=O)N[C@@H]([C@@H](C)O)C(=O)N[C@@H](CC(C)C)C(=O)N1)C(=O)N[C@H](CCCCN)C(N)=O [compound 211] (HELM PEPTIDE1{[meR].S.D.T.L.C.[Tic].E.[dK].[am]}|CHEM1{[CO[*:1]]}|CHEM2{[O=C(c1ccccc1C[*:2])[*:1]]}$PEPTIDE1,CHEM1,8:R3-1:R1|PEPTIDE1,CHEM2,1:R1-1:R1|PEPTIDE1,CHEM2,6:R3-1:R2$$$V2.0)			IC50 (RPMI 8866 cells; [2]): < 25 nM; half-life at 22 μM ([1]; pig, simulated intestinal fluid (SIF) with 1% porcine pancreatin, pH 6.5, porcine pancreatin, dimers, Table 7): 7 min
CC(C)C[C@@H]1NC(=O)[C@H]([C@@H](C)O)NC(=O)[C@H](CC(=O)O)NC(=O)[C@H](CO)NC(=O)[C@H](CCCNC(=N)N)N(C)C(=O)c2ccccc2CSC(C)(C)[C@@H](C(=O)N[C@@H](Cc2ccccc2)C(=O)N[C@H](CCC(=O)O)C(=O)N[C@H](CCCCN)C(N)=O)NC1=O [compound 65] (HELM PEPTIDE1{[meR].S.D.T.L.[Pen].F.[dE].[dK].[am]}|CHEM1{[O=C(c1ccccc1C[*:2])[*:1]]}$PEPTIDE1,CHEM1,1:R1-1:R1|PEPTIDE1,CHEM1,6:R3-1:R2$$$V2.0)	> 3		
CC(C)C[C@@H]1NC(=O)[C@H]([C@@H](C)O)NC(=O)[C@H](CC(=O)O)NC(=O)[C@H](CO)NC(=O)[C@H](CCCNC(=N)N)N(C)C(=O)CCSCC[C@@H](C(=O)N[C@@H](Cc2c[nH]c3ccccc23)C(=O)N[C@H](CCCCNC(=O)COCC(=O)NCCCC[C@@H](NC(=O)[C@H](Cc2c[nH]c3ccccc23)NC(=O)[C@@H]2CCSCCC(=O)N(C)[C@@H](CCCNC(=N)N)C(=O)N[C@@H](CO)C(=O)N[C@@H](CC(=O)O)C(=O)N[C@@H]([C@@H](C)O)C(=O)N[C@@H](CC(C)C)C(=O)N2)C(N)=O)C(N)=O)NC1=O [compound 149]			IC50 (RPMI 8866 cells; [2]): > 1000 nM; half-life ([1]; pig, dimers, Table 7): < 0.333 h
CC(C)C[C@@H]1NC(=O)[C@H]([C@@H](C)O)NC(=O)[C@H](CC(=O)O)NC(=O)[C@H](CO)NC(=O)[C@H](CCCNC(=N)N)N(C)C(=O)c2ccccc2CSC(C)(C)[C@@H](C(=O)N[C@@H](Cc2c[nH]c3ccccc23)C(=O)N[C@@H](Cc2ccc(O)cc2)C(=O)N(C)[C@@H](CCCCN)C(N)=O)NC1=O [compound 153] (HELM PEPTIDE1{[meR].S.D.T.L.[Pen].W.Y.[meK].[am]}|CHEM1{[O=C(c1ccccc1C[*:2])[*:1]]}$PEPTIDE1,CHEM1,1:R1-1:R1|PEPTIDE1,CHEM1,6:R3-1:R2$$$V2.0)		> 3	
CCCC[C@@H]1NC(=O)[C@H]([C@@H](C)O)NC(=O)[C@H](CC(=O)O)NC(=O)[C@H](CO)NC(=O)[C@H](CCCNC(=N)N)N(C)C(=O)c2ccccc2CSC(C)(C)[C@@H](C(=O)N[C@@H](Cc2c[nH]c3ccccc23)C(=O)N[C@@H](CCC(=O)O)C(=O)N[C@H](CCCCN)C(N)=O)NC1=O [compound 154] (HELM PEPTIDE1{[meR].S.D.T.[Nle].[Pen].W.E.[dK].[am]}|CHEM1{[O=C(c1ccccc1C[*:2])[*:1]]}$PEPTIDE1,CHEM1,1:R1-1:R1|PEPTIDE1,CHEM1,6:R3-1:R2$$$V2.0)		< 0.333	
CC(C)C[C@@H]1NC(=O)[C@H]([C@@H](C)O)NC(=O)[C@H](CC(=O)O)NC(=O)[C@H](CO)NC(=O)[C@H](CCCNC(=N)N)N(C)C(=O)c2ccccc2CSC(C)(C)[C@@H](C(=O)N[C@@H](Cc2c[nH]c3ccccc23)C(=O)N[C@@H](Cc2ccc(O)cc2)C(=O)N(C)[C@@H](CCCCN)C(N)=O)NC1=O [compound 63] (HELM PEPTIDE1{[meR].S.D.T.L.[Pen].W.Y.[meK].[am]}|CHEM1{[O=C(c1ccccc1C[*:2])[*:1]]}$PEPTIDE1,CHEM1,1:R1-1:R1|PEPTIDE1,CHEM1,6:R3-1:R2$$$V2.0)	> 3		
CC(C)C[C@@H]1NC(=O)[C@H]([C@@H](C)O)NC(=O)[C@H](CC(=O)O)NC(=O)[C@H](CO)NC(=O)[C@H](CCCNC(=N)N)N(C)C(=O)c2ccccc2CSC(C)(C)[C@@H](C(=O)N[C@@H](Cc2c[nH]c3ccccc23)C(=O)N[C@@H](CCC(=O)O)C(=O)N[C@H](CCCCN)C(N)=O)NC1=O [compound 146] (HELM PEPTIDE1{[meR].S.D.T.L.[Pen].W.E.[dK].[am]}|CHEM1{[O=C(c1ccccc1C[*:2])[*:1]]}$PEPTIDE1,CHEM1,1:R1-1:R1|PEPTIDE1,CHEM1,6:R3-1:R2$$$V2.0)		< 0.333	
CC(C)C[C@@H]1NC(=O)[C@H]([C@@H](C)O)NC(=O)[C@H](CC(=O)O)NC(=O)[C@H](CO)NC(=O)[C@H](CCCNC(=N)N)N(C)C(=O)c2ccccc2CSC(C)(C)[C@@H](C(=O)N[C@@H](Cc2c[nH]c3ccccc23)C(=O)N[C@@H](CCC(=O)O)C(=O)N[C@H](CCCCN)C(N)=O)NC1=O [compound 56] (HELM PEPTIDE1{[meR].S.D.T.L.[Pen].W.E.[dK].[am]}|CHEM1{[O=C(c1ccccc1C[*:2])[*:1]]}$PEPTIDE1,CHEM1,1:R1-1:R1|PEPTIDE1,CHEM1,6:R3-1:R2$$$V2.0)	3.1		
CC(C)C[C@@H]1NC(=O)[C@H]([C@@H](C)O)NC(=O)[C@H](CC(=O)O)NC(=O)[C@H](CO)NC(=O)[C@H](CCCNC(=N)N)N(C)C(=O)c2ccccc2CSC(C)(C)[C@@H](C(=O)N[C@@H](Cc2c[nH]c3ccccc23)C(=O)N[C@H](CCC(=O)O)C(=O)N[C@H](CCCCN)C(N)=O)NC1=O [compound 60] (HELM PEPTIDE1{[meR].S.D.T.L.[Pen].W.[dE].[dK].[am]}|CHEM1{[O=C(c1ccccc1C[*:2])[*:1]]}$PEPTIDE1,CHEM1,1:R1-1:R1|PEPTIDE1,CHEM1,6:R3-1:R2$$$V2.0)	> 3		
